According to patent US20220395464A1, “ORALLY ADMINISTERED SOLID DOSAGE FORM DRUG” (ASCENTAWITS PHARMACEUTICALS, LTD., priority 2019, published 2022):
Values joined by “and” are separate entries in the source; they are usually repeats but may differ in a detail not shown here. Equal values may be shown once. Read-outs that look alike come from different tables or passages of the source.

Test: Pharmacokinetics after single intravenous drip infusion, plasma LC-MS/MS
Type: in vivo, Philippine macaques
Settings: for Plasma-drug concentration: AST-3424-D6 intravenous drip infusion 0.42 mg/kg
Experimental: AST-3424 and AST-3424-D6 (i.e. the compound of formula I) were administered to Philippine macaques by intravenous drip infusion, and blood samples were collected at different appointed times. LC-MS/MS was used to determine concentrations of the test substances in plasma of the Philippine macaques after administration, and relevant pharmacokinetic parameters were calculated.
Preparation method: 0.447 ml of AST-3424 (0.2 mg/ml) and 0.481 ml of AST-3424-D6 (0.2 mg/ml) were added into 104.272 ml of the dissolvent, respectively, and mixed for 5 minutes to obtain colorless and clarified solutions with pH 7.0.
The four male Philippine macaques were purchased from Guangxi Xiongsen Primate Development Experiment Co., Ltd. All Philippine macaques were healthy with qualified medical examination and no abnormality. Three of animals were used for the experiment, and one of them was used to prepare blank plasma.
About 0.8 ml of blood samples were collected through femoral vein and anticoagulated with heparin sodium. Appointed times of blood collection were before administration, 0.17, 0.25, 0.5, 0.75, 1, 2, and 4 hours after administration.
The blood samples were placed on ice after collection. Next, plasma samples were separated by centrifugation, and centrifugation conditions were 3500 rpm for 10 minutes at 4° C. Then, the collected plasma samples were stored at −80° C. until analysis. The plasma samples were analyzed by LC-MS/MS by an analysis department of an experimental institution. Besides, Lower limit of quantifications (LLOQ) of AST-3424 and AST-3424-D6 detection were 1 ng/ml. The accuracy of analysis results of an accompanying standard curve and a quality control samples all met the relevant requirements of biological analysis (the accuracy of the quality control samples exceeding 66.7% was between 85˜115%) in a process of the sample detection.
According to average blood concentration data of each group at each appointed time, the pharmacokinetic parameters of the compounds were respectively computed by a pharmacokinetic computing software, a non-compartmental model. In addition, the pharmacokinetic parameters were AUC0-t, AUC0-∞, MRT0-∞, Cmax, Tmax, t1/2, etc. In the case of the concentrations of the samples whose concentration being lower than a lower limit of quantification, the following schemes were used to compute the pharmacokinetic parameters. The samples sampled before reaching Cmax shall be computed as zero value, while the samples sampled after reaching Cmax shall be computed as non-quantifiable (marked as “BLQ”).
After a single intravenous infusion of the compounds AST-3424 and AST-3424-D6 was administered to the Philippine macaques, the whole blood samples of the corresponding animals were collected at the appointed times. Next, the whole blood samples were processed and biologically analyzed to obtain concentrations of the compounds in the plasma at the different appointed times. Results of the assay were listed in Table 14 below, and corresponding means of the plasma-drug concentration-time curves are shown in FIG. 3.
According to the plasma-drug concentration data of each drug group, the pharmacokinetic parameters of each compound group were computed using the non-compartmental model of the pharmacokinetic computing software. The pharmacokinetic

[1] = AST-3424-D6 single intravenous infusion, Table 15 heading 0.58 mg/kg (text: 0.42 mg/kg), plasma, individual animals 101, 102, 103

[2H]C([2H])([2H])N(C(=O)c1cccc(Oc2cc([C@H](C)OP(=O)(N3CC3)N3CC3)ccc2[N+](=O)[O-])c1)C([2H])([2H])[2H] [AST-3424-D6]
Plasma-drug concentration (0.17 hr, individual animals 101, 102, 103): 573.76 ng/mL and 478.95 ng/mL | Plasma-drug concentration (0.25 hr, individual animals 101, 102, 103): 528.54 ng/mL and 508.71 ng/mL | Plasma-drug concentration (0.5 hr, individual animals 101, 102, 103): 533.71 ng/mL and 487.88 ng/mL | Plasma-drug concentration (0.75 hr, individual animals 101, 102, 103): 122.04 ng/mL and 91.24 ng/mL | Plasma-drug concentration (1 hr, individual animals 101, 102, 103): 36.24 ng/mL and 24.30 ng/mL | Plasma-drug concentration (2 hr, individual animals 101, 102, 103, LLOQ 1 ng/ml): BLQ | Plasma-drug concentration (4 hr, individual animals 101, 102, 103, LLOQ 1 ng/ml): BLQ | AUC(0−t) [1]: 327.39 ng·h/mL and 291.62 ng·h/mL | AUC(0−∞) [1]: 295.67 ng·h/mL | Cl [1]: 23.6747 mL/min/kg | Cmax [1]: 573.76 ng/mL and 508.71 ng/mL | T1/2 [1]: 7.2 min | Tmax [1]: 30 min and 10.2 min and 15 min | Vss [1]: 0.20706 L/kg | Vz [1]: 0.23679 L/kg | Integral area under the drug-time curve (AUC) compared with AST-3424, in words (Philippine macaques, FIG. 3, 0.42 mg/kg AST-3424-D6 vs 0.58 mg/kg AST-3424): smaller | AUC(0-t) (male, Philippine macaque, cynomolgus monkey, plasma, iv, 0.42 mg/kg, AST-3424-D6 single intravenous infusion, Table 15 heading 0.58 mg/kg (text: 0.42 mg/kg), plasma, individual animals 101, 102, 103, read-out: AUC(0−t)): 286 ng·h/mL | AUC(0-inf) (male, Philippine macaque, cynomolgus monkey, plasma, iv, 0.42 mg/kg, AST-3424-D6 single intravenous infusion, Table 15 heading 0.58 mg/kg (text: 0.42 mg/kg), plasma, individual animals 101, 102, 103, read-out: AUC(0−∞)): 334 ng·h/mL | clearance (male, Philippine macaque, cynomolgus monkey, plasma, iv, 0.42 mg/kg, AST-3424-D6 single intravenous infusion, Table 15 heading 0.58 mg/kg (text: 0.42 mg/kg), plasma, individual animals 101, 102, 103, read-out: Cl (converted)): 20.9 mL/min/kg | Cmax (male, Philippine macaque, cynomolgus monkey, plasma, iv, 0.42 mg/kg, AST-3424-D6 single intravenous infusion, Table 15 heading 0.58 mg/kg (text: 0.42 mg/kg), plasma, individual animals 101, 102, 103, read-out: Cmax): 485 ng/mL | MRT last (male, Philippine macaque, cynomolgus monkey, plasma, iv, 0.42 mg/kg, AST-3424-D6 single intravenous infusion, Table 15 heading 0.58 mg/kg (text: 0.42 mg/kg), plasma, individual animals 101, 102, 103, read-out: MRT(0−t)): 9 min | MRT inf (male, Philippine macaque, cynomolgus monkey, plasma, iv, 0.42 mg/kg, AST-3424-D6 single intravenous infusion, Table 15 heading 0.58 mg/kg (text: 0.42 mg/kg), plasma, individual animals 101, 102, 103, read-out: MRT(0−∞)): 9.6 min | half-life (male, Philippine macaque, cynomolgus monkey, plasma, iv, 0.42 mg/kg, AST-3424-D6 single intravenous infusion, Table 15 heading 0.58 mg/kg (text: 0.42 mg/kg), plasma, individual animals 101, 102, 103, read-out: T1/2 (converted)): 7.8 min | Vd (male, Philippine macaque, cynomolgus monkey, plasma, iv, 0.42 mg/kg, AST-3424-D6 single intravenous infusion, Table 15 heading 0.58 mg/kg (text: 0.42 mg/kg), plasma, individual animals 101, 102, 103, read-out: Vss): 0.198 L/kg | Vd (male, Philippine macaque, cynomolgus monkey, plasma, iv, 0.42 mg/kg, AST-3424-D6 single intravenous infusion, Table 15 heading 0.58 mg/kg (text: 0.42 mg/kg), plasma, individual animals 101, 102, 103, read-out: Vz): 0.234 L/kg | AUC(0-t) (male, Philippine macaque, cynomolgus monkey, plasma, iv, 0.42 mg/kg, AST-3424-D6 single intravenous infusion, Table 15 heading 0.58 mg/kg (text: 0.42 mg/kg), plasma, read-out: AUC(0−t), Mean): 302 ± 22.6 ng·h/mL | AUC(0-inf) (male, Philippine macaque, cynomolgus monkey, plasma, iv, 0.42 mg/kg, AST-3424-D6 single intravenous infusion, Table 15 heading 0.58 mg/kg (text: 0.42 mg/kg), plasma, read-out: AUC(0−∞), Mean): 315 ± 27.2 ng·h/mL | Cmax (male, Philippine macaque, cynomolgus monkey, plasma, iv, 0.42 mg/kg, AST-3424-D6 single intravenous infusion, Table 15 heading 0.58 mg/kg (text: 0.42 mg/kg), plasma, read-out: Cmax, Mean): 522 ± 46 ng/mL | MRT last (male, Philippine macaque, cynomolgus monkey, plasma, iv, 0.42 mg/kg, AST-3424-D6 single intravenous infusion, Table 15 heading 0.58 mg/kg (text: 0.42 mg/kg), plasma, read-out: MRT(0−t), Mean): 8.4 ± 0.6 min | MRT inf (male, Philippine macaque, cynomolgus monkey, plasma, iv, 0.42 mg/kg, AST-3424-D6 single intravenous infusion, Table 15 heading 0.58 mg/kg (text: 0.42 mg/kg), plasma, read-out: MRT(0−∞), Mean): 9 min
